Results taken from patent US12708630B2, “Combined therapy of 4′-thio-5-aza-2′-deoxycytidine and Venetoclax” (PINOTBIO, INC., priority 2021, dated 2026).

How the values were obtained:
Experiment in all cases: drug activity profiling cytotoxicity
Assay type in all cases: cell-based
[1] = test system: 5637; details: 5637 cell line, Bladder; read-out: Aza-T-dCyd IC50
Description: (§1) To obtain a biomarker for Aza-T-dCyd, drug activity profiling analysis was performed to evaluate the cytotoxicity of 200 cell lines.
(§2) The drug responsiveness analysis of Aza-T-dCyd through drug activity profiling and genomic analysis of 200 cell lines confirmed the potent efficacy of Aza-T-dCyd in various solid tumors (Table 2).

[2] = test system: 647-V; details: Homo sapiens; 647-V cell line, Bladder; read-out: Aza-T-dCyd IC50
Description: as §1, §2

[3] = test system: 769-P; details: Homo sapiens; 769-P cell line, Kidney; read-out: Aza-T-dCyd IC50
Description: as §1, §2

[4] = test system: A204; details: Homo sapiens; A204 cell line, Sarcoma; read-out: Aza-T-dCyd IC50
Description: as §1, §2

[5] = test system: A549; details: Homo sapiens; A549 cell line, Lung (NSCLC); read-out: Aza-T-dCyd IC50
Description: as §1, §2

[6] = test system: BxPC-3; details: Homo sapiens; BxPC-3 cell line, Pancreas; read-out: Aza-T-dCyd IC50
Description: as §1, §2

[7] = test system: C-4 II; details: Homo sapiens; C-4 II cell line, Female GU (Cervix); read-out: Aza-T-dCyd IC50
Description: as §1, §2

[8] = test system: C32; details: Homo sapiens; C32 cell line, Skin (Melanoma); read-out: Aza-T-dCyd IC50
Description: as §1, §2

[9] = test system: CAMA-1; details: Homo sapiens; CAMA-1 cell line, Breast; read-out: Aza-T-dCyd IC50
Description: as §1, §2

[10] = test system: DMS53; details: Homo sapiens, DMS-53; DMS53 cell line, Lung (SCLC); read-out: Aza-T-dCyd IC50
Description: as §1, §2

[11] = test system: H4; details: H4 cell line, CNS (Glioma); read-out: Aza-T-dCyd IC50
Description: as §1, §2

[12] = test system: HCT-15; details: Homo sapiens; HCT-15 cell line, Colon; read-out: Aza-T-dCyd IC50
Description: as §1, §2

[13] = test system: Hs 766T; details: Hs766T; Hs 766T cell line, Pancreas; read-out: Aza-T-dCyd IC50
Description: as §1, §2

[14] = test system: IM-9; details: Homo sapiens; IM-9 cell line, B-cell lymphoma; read-out: Aza-T-dCyd IC50
Description: as §1, §2

[15] = test system: KATO III; details: Homo sapiens; KATO III cell line, Stomach; read-out: Aza-T-dCyd IC50
Description: as §1, §2

[16] = test system: LS-174T; details: Homo sapiens, LS174T; LS-174T cell line, Colon; read-out: Aza-T-dCyd IC50
Description: as §1, §2

[17] = test system: MDA MB 468; details: Homo sapiens; MDA MB 468 cell line, Breast; read-out: Aza-T-dCyd IC50
Description: as §1, §2

[18] = test system: MV-4-11; details: Homo sapiens, MV4-11; MV-4-11 cell line, AML; read-out: Aza-T-dCyd IC50
Description: as §1, §2

[19] = test system: MeWo; details: Homo sapiens; MeWo cell line, Skin (Melanoma); read-out: Aza-T-dCyd IC50
Description: as §1, §2

[20] = test system: OE19; details: Homo sapiens; OE19 cell line, Head and Neck; read-out: Aza-T-dCyd IC50
Description: as §1, §2

[21] = test system: OE21; details: OE21 cell line, Head and Neck; read-out: Aza-T-dCyd IC50
Description: as §1, §2

[22] = test system: PSN-1; details: Homo sapiens, PSN1; PSN-1 cell line, Pancreas; read-out: Aza-T-dCyd IC50
Description: as §1, §2

[23] = test system: RL95-2; details: Homo sapiens; RL95-2 cell line, Female GU (Uterus); read-out: Aza-T-dCyd IC50
Description: as §1, §2

[24] = test system: RPMI 6666; details: Homo sapiens; RPMI 6666 cell line, Hodgkin's lymphoma; read-out: Aza-T-dCyd IC50
Description: as §1, §2

[25] = test system: RS4; 11; details: Homo sapiens, 11 cell line, ALL, read-out: Aza-T-dCyd IC50
Description: as §1, §2

[26] = test system: SK-PN-DW; details: SK-PN-DW cell line, Sarcoma; read-out: Aza-T-dCyd IC50
Description: as §1, §2

[27] = test system: SK-UT-1; details: Homo sapiens; SK-UT-1 cell line, Sarcoma; read-out: Aza-T-dCyd IC50
Description: as §1, §2

[28] = test system: SU-DHL-10; details: Homo sapiens, SU-DHL10; SU-DHL-10 cell line, B-cell lymphoma; read-out: Aza-T-dCyd IC50
Description: as §1, §2

[29] = test system: SW1417; details: Homo sapiens; SW1417 cell line, Colon; read-out: Aza-T-dCyd IC50
Description: as §1, §2

[30] = test system: TT; details: Homo sapiens; TT cell line, Endocrine (Thyroid); read-out: Aza-T-dCyd IC50
Description: as §1, §2

[31] = test system: YAPC; details: Homo sapiens; YAPC cell line, Pancreas; read-out: Aza-T-dCyd IC50
Description: as §1, §2

Q: How did the IC50 [1] turn out when Nc1ncn([C@H]2CC(O)[C@@H](CO)S2)c(=O)n1 (stereo partly shown) [Aza-T-dCyd, 4′-thio-5-aza-2′-deoxycytidine] was run?
A: 296 nM

Q: What about the IC50 [2] of the same compound?
A: 408 nM

Q: And the IC50 [3]?
A: 65.7 nM

Q: What about the IC50 [4] of the same compound?
A: 157 nM

Q: And the IC50 [5]?
A: 190 nM

Q: What about the IC50 [6] of the same compound?
A: 699 nM

Q: What about the IC50 [7] of the same compound?
A: 773 nM

Q: And the IC50 [8]?
A: > 10000 nM

Q: And the IC50 [9]?
A: > 10000 nM

Q: And the IC50 [10]?
A: 4220 nM

Q: And the IC50 [11]?
A: 80.1 nM

Q: And the IC50 [12]?
A: 1020 nM

Q: And the IC50 [13]?
A: 9400 nM

Q: And the IC50 [14]?
A: 1050 nM

Q: What about the IC50 [15] of the same compound?
A: 807 nM

Q: And the IC50 [16]?
A: > 10000 nM

Q: What about the IC50 [17] of the same compound?
A: 1340 nM

Q: What about the IC50 [18] of the same compound?
A: 183 nM

Q: What about the IC50 [19] of the same compound?
A: 1040 nM

Q: What about the IC50 [20] of the same compound?
A: > 10000 nM

Q: And the IC50 [21]?
A: 152 nM

Q: And the IC50 [22]?
A: 191 nM

Q: And the IC50 [23]?
A: 705 nM

Q: And the IC50 [24]?
A: 1050 nM

Q: And the IC50 [25]?
A: 20.3 nM

Q: What about the IC50 [26] of the same compound?
A: 847 nM

Q: What about the IC50 [27] of the same compound?
A: 343 nM

Q: What about the IC50 [28] of the same compound?
A: 36.6 nM

Q: What about the IC50 [29] of the same compound?
A: > 10000 nM

Q: What about the IC50 [30] of the same compound?
A: > 10000 nM

Q: And the IC50 [31]?
A: 1050 nM
